Measured values from the kinase profiling compilation of Christmann-Franck et al. (2016).

How the values were obtained:
Assay in all cases: radiometric filter-binding kinase assay, Kinase HotSpot
Settings in all cases: compound 0.5 µM; ATP 10 µM
[1] = target: GSK3B (human) (UniProt P49841)
[2] = target: FGFR3 (human) (UniProt P22607)
[3] = target: EGFR (human) (UniProt P00533)
[4] = target: MAP3K2 (human) (UniProt Q9Y2U5)
[5] = target: TGFBR1 (human) (UniProt P36897)
[6] = target: ZAP70 (human) (UniProt P43403)
[7] = target: EPHB1 (human) (UniProt P54762)
[8] = target: GRK6 (human) (UniProt P43250)
[9] = target: CDK3 CCNE1 (human) (UniProt Q00526+P24864)
[10] = target: EPHB2 (human) (UniProt P29323)
[11] = target: BRSK1 (human) (UniProt Q8TDC3)
[12] = target: ULK1 (human) (UniProt O75385)
[13] = target: MAP3K9 (human) (UniProt P80192)
[14] = target: SYK (human) (UniProt P43405)
[15] = target: GSK3A (human) (UniProt P49840)
[16] = target: EPHA2 (human) (UniProt P29317)
[17] = target: KDR (human) (UniProt P35968)
[18] = target: CSNK1D (human) (UniProt P48730)
[19] = target: ERBB2 (human) (UniProt P04626)
[20] = target: MAPK1 (human) (UniProt P28482)
[21] = target: PAK6 (human) (UniProt Q9NQU5)
[22] = target: WEE1 (human) (UniProt P30291)
[23] = target: CLK4 (human) (UniProt Q9HAZ1)
[24] = target: PRKG2 (human) (UniProt Q13237)
[25] = target: CSK (human) (UniProt P41240)
[26] = target: STK25 (human) (UniProt O00506)
[27] = target: CAMK1 (human) (UniProt Q14012)
[28] = target: RPS6KA5 KD2 (human) (UniProt O75582)
[29] = target: MAPK3 (human) (UniProt P27361)
[30] = target: SRPK3 (human) (UniProt Q9UPE1)
[31] = target: CAMKK2 (human) (UniProt Q96RR4)
[32] = target: CDC42BPA (human) (UniProt Q5VT25)
[33] = target: DYRK4 (human) (UniProt Q9NR20)
[34] = target: PIM3 (human) (UniProt Q86V86)
[35] = target: BTK (human) (UniProt Q06187)
[36] = target: RPS6KA3 KD1 KD2 (human) (UniProt P51812)
[37] = target: SRPK1 (human) (UniProt Q96SB4)
[38] = target: MAP2K1 (human) (UniProt Q02750)
[39] = target: NEK4 (human) (UniProt P51957)
[40] = target: MAP4K5 (human) (UniProt Q9Y4K4)
[41] = target: CAMK2G (human) (UniProt Q13555)
[42] = target: EPHA5 (human) (UniProt P54756)

MAPK3 (human), sequence (P27361 whole entry, looked up): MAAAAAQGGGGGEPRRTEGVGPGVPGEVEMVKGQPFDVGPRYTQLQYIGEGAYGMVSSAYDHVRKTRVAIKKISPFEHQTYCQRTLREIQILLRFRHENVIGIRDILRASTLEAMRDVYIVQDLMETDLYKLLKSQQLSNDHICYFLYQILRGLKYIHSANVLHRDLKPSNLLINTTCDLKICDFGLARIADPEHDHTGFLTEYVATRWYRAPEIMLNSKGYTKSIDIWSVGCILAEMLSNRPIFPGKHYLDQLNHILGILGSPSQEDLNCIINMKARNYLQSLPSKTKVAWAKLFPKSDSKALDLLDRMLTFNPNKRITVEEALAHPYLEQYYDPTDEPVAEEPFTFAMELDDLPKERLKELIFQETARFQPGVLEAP
MAP3K9 (human), sequence (P80192 whole entry, looked up): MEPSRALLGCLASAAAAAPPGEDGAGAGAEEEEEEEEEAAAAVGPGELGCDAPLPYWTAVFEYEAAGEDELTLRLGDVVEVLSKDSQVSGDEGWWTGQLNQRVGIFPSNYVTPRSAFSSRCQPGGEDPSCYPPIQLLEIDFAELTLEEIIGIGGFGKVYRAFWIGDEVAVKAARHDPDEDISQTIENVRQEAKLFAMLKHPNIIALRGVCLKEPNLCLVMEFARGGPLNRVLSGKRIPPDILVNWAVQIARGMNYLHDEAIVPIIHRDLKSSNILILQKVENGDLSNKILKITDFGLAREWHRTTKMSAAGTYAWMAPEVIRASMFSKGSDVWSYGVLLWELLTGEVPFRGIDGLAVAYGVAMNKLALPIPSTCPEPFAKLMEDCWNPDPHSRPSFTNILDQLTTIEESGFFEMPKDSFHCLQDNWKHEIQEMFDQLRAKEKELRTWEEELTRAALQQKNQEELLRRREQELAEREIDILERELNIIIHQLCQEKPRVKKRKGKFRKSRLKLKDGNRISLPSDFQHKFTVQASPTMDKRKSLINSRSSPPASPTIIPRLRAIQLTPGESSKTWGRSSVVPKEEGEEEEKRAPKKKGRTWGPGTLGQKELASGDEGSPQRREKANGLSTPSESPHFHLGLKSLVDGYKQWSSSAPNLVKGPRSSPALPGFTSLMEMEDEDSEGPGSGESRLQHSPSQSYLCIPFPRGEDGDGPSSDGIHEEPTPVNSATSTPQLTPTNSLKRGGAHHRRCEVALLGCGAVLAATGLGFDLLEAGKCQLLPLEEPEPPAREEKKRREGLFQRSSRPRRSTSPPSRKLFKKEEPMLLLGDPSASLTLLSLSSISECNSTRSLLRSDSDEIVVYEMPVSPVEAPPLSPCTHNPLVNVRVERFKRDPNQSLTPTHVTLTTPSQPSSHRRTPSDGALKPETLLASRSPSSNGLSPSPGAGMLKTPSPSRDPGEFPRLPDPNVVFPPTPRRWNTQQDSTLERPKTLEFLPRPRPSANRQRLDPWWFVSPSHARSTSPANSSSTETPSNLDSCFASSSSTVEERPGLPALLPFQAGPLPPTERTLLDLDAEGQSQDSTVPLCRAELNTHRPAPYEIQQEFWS
RPS6KA5 KD2 (human), sequence (O75582 whole entry, looked up): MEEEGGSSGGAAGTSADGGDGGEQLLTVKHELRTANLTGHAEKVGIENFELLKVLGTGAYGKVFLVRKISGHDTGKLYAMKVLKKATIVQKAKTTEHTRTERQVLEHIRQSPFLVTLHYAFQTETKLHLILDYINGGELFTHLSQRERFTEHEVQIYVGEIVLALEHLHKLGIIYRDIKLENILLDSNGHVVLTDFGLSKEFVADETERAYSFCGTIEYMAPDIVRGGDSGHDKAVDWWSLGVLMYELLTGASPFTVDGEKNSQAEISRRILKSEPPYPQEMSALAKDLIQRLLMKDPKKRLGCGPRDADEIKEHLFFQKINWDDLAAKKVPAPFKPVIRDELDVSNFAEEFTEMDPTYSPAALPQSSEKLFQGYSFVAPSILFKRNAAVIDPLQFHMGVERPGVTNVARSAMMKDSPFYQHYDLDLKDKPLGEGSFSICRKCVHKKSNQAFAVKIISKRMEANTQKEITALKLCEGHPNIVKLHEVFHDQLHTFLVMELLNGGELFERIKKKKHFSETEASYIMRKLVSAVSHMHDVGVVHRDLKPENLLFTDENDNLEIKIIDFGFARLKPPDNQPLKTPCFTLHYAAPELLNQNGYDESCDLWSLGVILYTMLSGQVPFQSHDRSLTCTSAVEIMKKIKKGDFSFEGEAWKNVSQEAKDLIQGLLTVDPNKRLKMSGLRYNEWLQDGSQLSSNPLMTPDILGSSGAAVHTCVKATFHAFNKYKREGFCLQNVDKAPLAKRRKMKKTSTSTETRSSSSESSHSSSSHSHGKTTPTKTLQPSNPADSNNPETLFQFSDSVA
CDK3 CCNE1 (human), sequence (P24864 whole entry, looked up): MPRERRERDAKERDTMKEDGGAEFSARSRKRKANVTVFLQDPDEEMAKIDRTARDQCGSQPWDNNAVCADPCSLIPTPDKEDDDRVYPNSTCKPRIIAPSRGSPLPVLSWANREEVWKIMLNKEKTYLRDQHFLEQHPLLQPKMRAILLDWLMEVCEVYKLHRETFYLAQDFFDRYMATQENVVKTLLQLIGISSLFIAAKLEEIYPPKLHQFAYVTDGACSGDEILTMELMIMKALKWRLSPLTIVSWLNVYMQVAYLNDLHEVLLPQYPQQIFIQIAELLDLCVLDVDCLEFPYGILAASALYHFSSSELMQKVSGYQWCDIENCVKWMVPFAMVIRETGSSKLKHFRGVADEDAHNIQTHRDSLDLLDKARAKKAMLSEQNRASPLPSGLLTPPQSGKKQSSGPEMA
CDK3 CCNE1 (human), sequence (Q00526 whole entry, looked up): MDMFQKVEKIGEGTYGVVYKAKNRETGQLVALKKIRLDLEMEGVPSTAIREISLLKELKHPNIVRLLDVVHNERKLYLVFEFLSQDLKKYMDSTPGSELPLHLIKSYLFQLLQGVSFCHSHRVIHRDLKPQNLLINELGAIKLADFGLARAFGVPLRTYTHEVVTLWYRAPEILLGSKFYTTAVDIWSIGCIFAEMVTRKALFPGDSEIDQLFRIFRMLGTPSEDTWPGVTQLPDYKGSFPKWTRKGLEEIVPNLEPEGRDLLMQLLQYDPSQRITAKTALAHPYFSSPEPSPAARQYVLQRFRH
BTK (human), sequence (Q06187 whole entry, looked up): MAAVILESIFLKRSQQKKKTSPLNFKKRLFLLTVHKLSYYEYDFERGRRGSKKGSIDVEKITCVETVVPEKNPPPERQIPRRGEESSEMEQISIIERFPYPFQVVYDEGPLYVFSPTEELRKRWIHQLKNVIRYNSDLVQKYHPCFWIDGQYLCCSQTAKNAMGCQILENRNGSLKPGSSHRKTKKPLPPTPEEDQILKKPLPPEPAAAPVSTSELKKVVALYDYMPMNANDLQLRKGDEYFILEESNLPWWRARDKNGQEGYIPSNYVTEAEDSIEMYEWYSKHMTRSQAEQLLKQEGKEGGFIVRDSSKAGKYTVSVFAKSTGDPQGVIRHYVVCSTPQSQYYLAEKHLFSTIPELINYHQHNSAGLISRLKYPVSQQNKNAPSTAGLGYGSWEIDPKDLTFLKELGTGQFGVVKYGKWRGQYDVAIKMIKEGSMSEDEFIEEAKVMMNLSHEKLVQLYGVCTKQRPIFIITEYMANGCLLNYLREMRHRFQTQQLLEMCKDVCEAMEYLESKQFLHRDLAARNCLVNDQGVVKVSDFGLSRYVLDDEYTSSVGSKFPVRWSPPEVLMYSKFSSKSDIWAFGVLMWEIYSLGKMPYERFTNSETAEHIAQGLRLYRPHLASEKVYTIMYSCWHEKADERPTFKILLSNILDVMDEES
DYRK4 (human), sequence (Q9NR20 whole entry, looked up): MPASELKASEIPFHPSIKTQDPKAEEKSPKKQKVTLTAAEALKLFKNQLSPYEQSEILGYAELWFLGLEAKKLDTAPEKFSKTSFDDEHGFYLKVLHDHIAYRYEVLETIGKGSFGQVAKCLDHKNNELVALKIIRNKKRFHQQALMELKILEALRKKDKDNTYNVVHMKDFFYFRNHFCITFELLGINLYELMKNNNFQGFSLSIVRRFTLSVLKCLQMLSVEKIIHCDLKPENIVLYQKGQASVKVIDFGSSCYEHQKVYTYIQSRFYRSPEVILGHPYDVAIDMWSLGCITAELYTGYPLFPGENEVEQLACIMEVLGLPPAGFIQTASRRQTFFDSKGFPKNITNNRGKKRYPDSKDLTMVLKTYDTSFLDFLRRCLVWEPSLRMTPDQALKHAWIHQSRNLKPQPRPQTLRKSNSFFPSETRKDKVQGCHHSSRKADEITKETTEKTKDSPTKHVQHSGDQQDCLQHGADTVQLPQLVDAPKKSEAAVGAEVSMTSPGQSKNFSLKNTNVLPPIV
CLK4 (human), sequence (Q9HAZ1 whole entry, looked up): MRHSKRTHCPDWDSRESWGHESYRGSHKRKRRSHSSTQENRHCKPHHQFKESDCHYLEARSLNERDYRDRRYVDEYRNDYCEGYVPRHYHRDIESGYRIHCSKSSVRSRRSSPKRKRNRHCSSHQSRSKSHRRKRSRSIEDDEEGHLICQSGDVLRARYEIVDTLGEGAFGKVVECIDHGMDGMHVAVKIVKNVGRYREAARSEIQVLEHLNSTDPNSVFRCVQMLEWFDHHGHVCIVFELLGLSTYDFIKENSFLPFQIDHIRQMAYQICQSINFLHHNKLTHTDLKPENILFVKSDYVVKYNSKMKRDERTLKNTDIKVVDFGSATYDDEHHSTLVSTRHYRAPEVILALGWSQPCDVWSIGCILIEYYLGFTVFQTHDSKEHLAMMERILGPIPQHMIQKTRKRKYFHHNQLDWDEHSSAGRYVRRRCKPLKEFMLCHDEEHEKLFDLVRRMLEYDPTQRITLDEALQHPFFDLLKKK

Q: For `COc1ccc(Cl)cc1NC(=O)Nc1cc(C)nc2ccccc12`, which residual activity [1] is on record?
A: 91.6%

Q: What about the residual activity [2] of the same compound?
A: 96.3%

Q: What about the residual activity [3] of the same compound?
A: 98%

Q: And the residual activity [4]?
A: 98%

Q: And the residual activity [5]?
A: 99.1%

Q: What about the residual activity [6] of the same compound?
A: 94.9%

Q: And the residual activity [7]?
A: 102%

Q: What about the residual activity [8] of the same compound?
A: 105%

Q: What about the residual activity [9] of the same compound?
A: 93.6%

Q: What about the residual activity [10] of the same compound?
A: 93.2%

Q: What about the residual activity [11] of the same compound?
A: 92.8%

Q: What about the residual activity [12] of the same compound?
A: 91.2%

Q: And the residual activity [13]?
A: 98.6%

Q: And the residual activity [14]?
A: 88.2%

Q: What about the residual activity [15] of the same compound?
A: 124%

Q: What about the residual activity [16] of the same compound?
A: 100%

Q: And the residual activity [17]?
A: 92.8%

Q: What about the residual activity [18] of the same compound?
A: 98.7%

Q: And the residual activity [19]?
A: 99.7%

Q: What about the residual activity [20] of the same compound?
A: 90.4%

Q: And the residual activity [21]?
A: 96.5%

Q: What about the residual activity [22] of the same compound?
A: 89%

Q: And the residual activity [23]?
A: 108%

Q: What about the residual activity [24] of the same compound?
A: 105%

Q: And the residual activity [25]?
A: 99.9%

Q: What about the residual activity [26] of the same compound?
A: 101%

Q: And the residual activity [27]?
A: 91.7%

Q: What about the residual activity [28] of the same compound?
A: 88.4%

Q: What about the residual activity [29] of the same compound?
A: 94.6%

Q: And the residual activity [30]?
A: 104%

Q: And the residual activity [31]?
A: 93.2%

Q: And the residual activity [32]?
A: 98.8%

Q: And the residual activity [33]?
A: 98.9%

Q: And the residual activity [34]?
A: 97.6%

Q: What about the residual activity [35] of the same compound?
A: 102%

Q: What about the residual activity [36] of the same compound?
A: 96.2%

Q: And the residual activity [37]?
A: 82.5%

Q: What about the residual activity [38] of the same compound?
A: 101%

Q: And the residual activity [39]?
A: 92%

Q: What about the residual activity [40] of the same compound?
A: 100%

Q: And the residual activity [41]?
A: 91.6%

Q: And the residual activity [42]?
A: 123%

Q: `O=C1NC(=O)c2c1c1c3ccccc3[nH]c1n1cncc21` was tested. Which residual activity [1] did it give?
A: 30.8%

Q: What about the residual activity [2] of the same compound?
A: 85%

Q: And the residual activity [3]?
A: 92.7%

Q: And the residual activity [4]?
A: 97.9%

Q: What about the residual activity [5] of the same compound?
A: 96.3%

Q: What about the residual activity [6] of the same compound?
A: 87.8%

Q: And the residual activity [7]?
A: 94%

Q: What about the residual activity [8] of the same compound?
A: 82.1%

Q: And the residual activity [9]?
A: 76.7%

Q: And the residual activity [10]?
A: 86.1%

Q: And the residual activity [11]?
A: 22.5%

Q: And the residual activity [12]?
A: 97.2%

Q: What about the residual activity [13] of the same compound?
A: 72.5%

Q: And the residual activity [14]?
A: 84.9%

Q: What about the residual activity [15] of the same compound?
A: 10.4%

Q: What about the residual activity [16] of the same compound?
A: 102%

Q: What about the residual activity [17] of the same compound?
A: 66.6%

Q: What about the residual activity [18] of the same compound?
A: 17.2%

Q: And the residual activity [19]?
A: 109%

Q: What about the residual activity [20] of the same compound?
A: 125%

Q: And the residual activity [21]?
A: 85.5%

Q: What about the residual activity [22] of the same compound?
A: 94.7%

Q: And the residual activity [23]?
A: 99%

Q: What about the residual activity [24] of the same compound?
A: 64.1%

Q: And the residual activity [25]?
A: 83.3%

Q: What about the residual activity [26] of the same compound?
A: 72.5%

Q: What about the residual activity [27] of the same compound?
A: 83.3%

Q: What about the residual activity [28] of the same compound?
A: 87.6%

Q: What about the residual activity [29] of the same compound?
A: 87.8%

Q: What about the residual activity [30] of the same compound?
A: 75.7%

Q: And the residual activity [31]?
A: 77.2%

Q: And the residual activity [32]?
A: 92.7%

Q: What about the residual activity [33] of the same compound?
A: 107%

Q: What about the residual activity [34] of the same compound?
A: 4.48%

Q: And the residual activity [35]?
A: 83.9%

Q: And the residual activity [36]?
A: 47.4%

Q: What about the residual activity [37] of the same compound?
A: 95.4%

Q: And the residual activity [38]?
A: 102%

Q: What about the residual activity [39] of the same compound?
A: 88.4%

Q: And the residual activity [40]?
A: 13.5%

Q: What about the residual activity [41] of the same compound?
A: 52.3%

Q: What about the residual activity [42] of the same compound?
A: 92%

Q: `COc1cc2ncnc(Nc3ccc(Oc4ccccc4)cc3)c2cc1OC` was tested. Which residual activity [1] did it give?
A: 109%

Q: And the residual activity [2]?
A: 87.1%

Q: And the residual activity [3]?
A: 31.6%

Q: What about the residual activity [4] of the same compound?
A: 102%

Q: And the residual activity [5]?
A: 97.1%

Q: And the residual activity [6]?
A: 97%

Q: What about the residual activity [7] of the same compound?
A: 108%

Q: And the residual activity [8]?
A: 99.6%

Q: What about the residual activity [9] of the same compound?
A: 98.5%

Q: And the residual activity [10]?
A: 99.7%

Q: What about the residual activity [11] of the same compound?
A: 98.7%

Q: What about the residual activity [12] of the same compound?
A: 89.5%

Q: What about the residual activity [13] of the same compound?
A: 57.7%

Q: What about the residual activity [14] of the same compound?
A: 98.6%

Q: What about the residual activity [15] of the same compound?
A: 97%

Q: And the residual activity [16]?
A: 106%

Q: What about the residual activity [17] of the same compound?
A: 92.1%

Q: What about the residual activity [18] of the same compound?
A: 106%

Q: And the residual activity [19]?
A: 29.5%

Q: What about the residual activity [20] of the same compound?
A: 99.8%

Q: What about the residual activity [21] of the same compound?
A: 109%

Q: What about the residual activity [22] of the same compound?
A: 99.1%

Q: And the residual activity [23]?
A: 122%

Q: What about the residual activity [24] of the same compound?
A: 98.3%

Q: What about the residual activity [25] of the same compound?
A: 18.8%

Q: What about the residual activity [26] of the same compound?
A: 109%

Q: What about the residual activity [27] of the same compound?
A: 105%

Q: And the residual activity [28]?
A: 106%

Q: And the residual activity [29]?
A: 105%

Q: What about the residual activity [30] of the same compound?
A: 94.8%

Q: What about the residual activity [31] of the same compound?
A: 104%

Q: What about the residual activity [32] of the same compound?
A: 95.4%

Q: What about the residual activity [33] of the same compound?
A: 97.3%

Q: What about the residual activity [34] of the same compound?
A: 96.9%

Q: And the residual activity [35]?
A: 38.8%

Q: What about the residual activity [36] of the same compound?
A: 97.8%

Q: And the residual activity [37]?
A: 105%

Q: And the residual activity [38]?
A: 85.9%

Q: And the residual activity [39]?
A: 96.8%

Q: What about the residual activity [40] of the same compound?
A: 70.6%

Q: And the residual activity [41]?
A: 94%

Q: And the residual activity [42]?
A: 85.3%

Q: Which residual activity [1] does the source give for `COc1ccc(C(=O)Nc2sc3c(c2C(N)=O)CCCC3)cc1OC` here?
A: 97.7%

Q: And the residual activity [2]?
A: 98.3%

Q: What about the residual activity [3] of the same compound?
A: 99.9%

Q: And the residual activity [4]?
A: 105%

Q: And the residual activity [5]?
A: 95.8%

Q: What about the residual activity [6] of the same compound?
A: 95.6%

Q: And the residual activity [7]?
A: 95%

Q: What about the residual activity [8] of the same compound?
A: 98.5%

Q: And the residual activity [9]?
A: 104%

Q: What about the residual activity [10] of the same compound?
A: 73.5%

Q: And the residual activity [11]?
A: 105%

Q: What about the residual activity [12] of the same compound?
A: 96%

Q: And the residual activity [13]?
A: 101%

Q: And the residual activity [14]?
A: 91.2%

Q: What about the residual activity [15] of the same compound?
A: 83.6%

Q: What about the residual activity [16] of the same compound?
A: 102%

Q: And the residual activity [17]?
A: 78.2%

Q: What about the residual activity [18] of the same compound?
A: 103%

Q: What about the residual activity [19] of the same compound?
A: 93.3%

Q: What about the residual activity [20] of the same compound?
A: 91.2%

Q: And the residual activity [21]?
A: 85.7%

Q: And the residual activity [22]?
A: 92.3%

Q: And the residual activity [23]?
A: 86.8%

Q: And the residual activity [24]?
A: 104%

Q: And the residual activity [25]?
A: 98.8%

Q: What about the residual activity [26] of the same compound?
A: 91.7%

Q: And the residual activity [27]?
A: 90.9%

Q: What about the residual activity [28] of the same compound?
A: 105%

Q: And the residual activity [29]?
A: 95.2%

Q: What about the residual activity [30] of the same compound?
A: 92%

Q: What about the residual activity [31] of the same compound?
A: 96.9%

Q: What about the residual activity [32] of the same compound?
A: 81.8%

Q: And the residual activity [33]?
A: 98.5%

Q: And the residual activity [34]?
A: 109%

Q: What about the residual activity [35] of the same compound?
A: 104%

Q: And the residual activity [36]?
A: 93%

Q: And the residual activity [37]?
A: 82.6%

Q: And the residual activity [38]?
A: 99.1%

Q: What about the residual activity [39] of the same compound?
A: 104%

Q: What about the residual activity [40] of the same compound?
A: 94.3%

Q: What about the residual activity [41] of the same compound?
A: 95.8%

Q: And the residual activity [42]?
A: 104%
